In the assay the target is recombinant eIF4E (Homo sapiens (Human), UniProt P06730). The assay is described as follows: Fluorescence polarization competition assay for eIF4E binding potency. In short, it runs like this: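 Protein and fluorescent cap-analog probe (EDA-m7GDP-ATTO-550) were mixed first for 5 min, after which serially diluted compound was added to final 75 nM eIF4E, 20 nM probe, 1% DMSO. Reactions equilibrated 30 min at room temperature before polarization was measured.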

Where [1] appears, read: fluorescence polarization competition, 75 nM recombinant eIF4E, 20 nM EDA-m7GDP-ATTO-550, IC50 class, read-out: elF4E FP.
[2] abbreviates: inhibition of eIF4E/EDA-m7GDP-ATTO-550 binding by 50%, Table 4B calculated values, read-out: IC50.
Where [3] appears, read: inhibition of eIF4E/EDA-m7GDP-ATTO-550 binding, calculated IC50 values, Table 4B, read-out: IC50.

Read-outs that look alike come from different tables or passages of the source.

Chain of recombinant eIF4E (P06730 whole entry): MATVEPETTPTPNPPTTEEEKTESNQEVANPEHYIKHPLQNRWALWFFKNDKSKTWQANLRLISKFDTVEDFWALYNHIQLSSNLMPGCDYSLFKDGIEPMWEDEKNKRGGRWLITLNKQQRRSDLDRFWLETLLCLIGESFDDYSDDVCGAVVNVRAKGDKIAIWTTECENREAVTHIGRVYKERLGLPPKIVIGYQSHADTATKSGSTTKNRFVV

As to `Cc1nc2cc(C(F)F)c(CN(C)C)c(C#N)c2c(=O)n1CC#Cc1ccc(Cl)cc1-c1ccnc2c(C(=O)O)csc12` [compound 622], the IC50 reads like this: under setting [1], less than 50 nM; under setting [2], 43.8 nM.
Taken in the same sequence, the figures for `CCc1cc(-c2cc(Cl)ccc2OCCn2c(C)nc3cc(C(F)(F)F)c(N4CCN(C)CC4)nc3c2=O)c2scc(C(=O)O)c2n1` [compound 1084] were less than 50 nM and 15 nM.
Regarding `Cc1nc2cnc(N3CCN(CCCOC(F)F)CC3)c(C#N)c2c(=O)n1CC#Cc1ccc(Cl)cc1-c1ccnc2c(C(=O)O)csc12` [compound 1509], the IC50 under setting [3] was 37.5 nM.
Consider `CNS(=O)(=O)c1ccc(C#N)c2c(=O)n(CCOc3ccc(Cl)cc3-c3ccnc4c(C(=O)O)csc34)c(C)nc12` [compound 238], for which the IC50 under setting [1] is less than 50 nM and the IC50 under setting [2] is 38 nM.
Taken in the same sequence, the figures for `Cc1nc2cnc(N3CCN(CC4(F)CC4)CC3)c(C#N)c2c(=O)n1CC#Cc1ccc(Cl)cc1-c1ccnc2c(C(=O)O)csc12` [compound 1167] were less than 50 nM and 17.3 nM.
Turning to `Cc1cc(-c2cc(Cl)ccc2OCCn2c(C)nc3cc(C(F)(F)F)c(Cl)c(C#N)c3c2=O)c2scc(C(=O)O)c2n1` [compound 558], the IC50 is, setting by setting: under setting [1], less than 50 nM; under setting [2], 27.2 nM.
On to `Cc1nc2cnc(N3CCN(CC(F)(F)F)CC3)c(C#N)c2c(=O)n1CCOc1ccc(Cl)cc1-c1ccnc2c(C(=O)O)csc12` [compound 1304], for which, under setting [3], the IC50 is 18.5 nM.
For `Cc1nc2cc(C(F)(F)F)c(C(F)F)c(C#N)c2c(=O)n1CCOc1ccc(Cl)cc1-c1cccc(C(=O)O)c1` [compound 59], the IC50 is, setting by setting: under setting [1], less than 50 nM; under setting [2], 21.5 nM.
On to `C#Cc1c(C(=O)O)cccc1-c1cc(Cl)ccc1OCCn1c(C)nc2cc(C(F)(F)F)cc(C#N)c2c1=O` [compound 156], for which the IC50 reads like this: under setting [1], less than 50 nM; under setting [2], 4.2 nM.
On the same counts, the results for `Cc1nc2cnc(N(C)C3CCN(CC4(F)CC4)CC3)c(C#N)c2c(=O)n1CC#Cc1ccc(Cl)cc1-c1ccnc2c(C(=O)O)csc12` [compound 1169] are less than 50 nM and 15.3 nM.
`Cc1cc(-c2cc(Cl)ccc2OCCn2c(C)nc3cc(Cl)cc(C#N)c3c2=O)c2scc(C(=O)O)c2n1` [compound 693]: the IC50 under setting [1] was less than 50 nM and the IC50 under setting [2] was 15 nM.
Taken in the same sequence, the figures for `Cc1nc2cnc(C3CCN(CC(F)(F)F)CC3)c(C#N)c2c(=O)n1CC#Cc1ccc(Cl)cc1-c1ccnc2c(C(=O)O)csc12` [compound 1116] were less than 50 nM and 17.1 nM.
For the compound `Cc1nc2cnc(N(C)[C@H]3CC[C@H](N(C)CCF)CC3)c(C#N)c2c(=O)n1CC#Cc1ccc(Cl)cc1-c1ccnc2c(C(=O)O)csc12` [compound 1229], the IC50 was less than 50 nM under setting [1] and 10.7 nM under setting [3].
With `Cc1nc2cc(C(F)(F)F)c(CCN(C)CC(F)F)c(C#N)c2c(=O)n1CCOc1ccc(Cl)cc1-c1ccnc2c(C(=O)O)csc12` [compound 1288], under setting [3], the IC50 was 36.7 nM.
On to `Cc1cc(-c2cc(Cl)ccc2OCCn2c(C)nc3cc(C(F)(F)F)c(-c4cnc(C(F)F)cn4)nc3c2=O)c2scc(C(=O)O)c2n1` [compound 1020], for which the IC50 under setting [1] was less than 50 nM and the IC50 under setting [2] is 23.4 nM.
On the same counts, the results for `Cc1nc2cc(C(F)(F)CN(C)C)cc(C#N)c2c(=O)n1CCOc1ccc(Cl)cc1-c1ccnc2c(C(=O)O)csc12` [compound 514] are less than 50 nM and 39.9 nM.
In the case of `Cc1sc2c(-c3cc(Cl)ccc3OCCn3cnc4cc(C(F)(F)F)c(CN(C)C)c(C#N)c4c3=O)ccnc2c1C(=O)O` [compound 641], the IC50 is less than 50 nM under setting [1] and 33.3 nM under setting [2].
Consider `Cc1nc2cnc(N(C)[C@H]3CC[C@@H](N4CC(F)(F)C4)CC3)c(C#N)c2c(=O)n1CC#Cc1ccc(Cl)cc1-c1ccnc2c(C(=O)O)csc12` [compound 1100], for which the IC50 under setting [1] is less than 50 nM and the IC50 under setting [2] is 33.5 nM.
On the same counts, the results for `N#Cc1cc(C(F)(F)F)cc2ncn(CCOc3ccc(Cl)cc3-c3ccnc(C(=O)O)c3)c(=O)c12` [compound 162] are less than 50 nM and 28.7 nM.
Turning to `CNc1nc2c(F)ccc(CCOc3ccc(Cl)cc3-c3cccc(C(=O)O)c3)c2c(=O)[nH]1` [compound 171], the IC50 runs as follows: under setting [1], 50 to 1000 nM; under setting [2], 194 nM.
In the case of `N#Cc1cccc2nc(C(F)F)n(CCOc3ccc(Cl)cc3-c3ccnc4c(C(=O)O)csc34)c(=O)c12` [compound 143], the IC50 runs as follows: under setting [1], less than 50 nM; under setting [2], 16.7 nM.
On to `Cc1nc2cc(C(F)(F)F)c(N3CCN(C)CC3)cc2c(=O)n1CCOc1ccc(Cl)cc1-c1ccnc2c(C(=O)NS(C)(=O)=O)csc12` [compound 1299], for which the IC50 under setting [3] was 32.1 nM.
Consider `N#Cc1cc(C(F)(F)F)cc2nc(Cl)n(CCOc3ccc(Cl)cc3-c3cccc(C(=O)O)c3)c(=O)c12` [compound 187], for which the IC50 reads like this: under setting [1], less than 50 nM; under setting [2], 48.3 nM.
Consider `Cc1nc2cnc(NC3CCCC3)cc2c(=O)n1CCOc1ccc(Cl)cc1-c1cccc(C(=O)O)c1` [compound 2005], for which the IC50 under setting [3] was 364 nM.
Still for that read-out and setting: the result for `Cc1nc2cc(F)c(F)c(C#N)c2c(=O)n1CCOc1ccc(Cl)cc1-c1ccnc2c(C(=O)O)csc12` [compound 1947] reads 29.7 nM.
For the compound `Cc1nc2cccc(C#N)c2c(=O)n1CCOc1ccc(Cl)cc1-c1ccnc2c(C(=O)O)csc12` [compound 254], the IC50 by setting is: under setting [1], less than 50 nM; under setting [2], 20.4 nM.
Consider `Cc1cc(-c2cc(Cl)ccc2OCCn2c(C)nc3cc(C(F)(F)F)c(N4CCN(C)CC4)c(C#N)c3c2=O)c2scc(C(O)(O)C(F)(F)F)c2n1` [compound 1079], for which the IC50 under setting [2] is 55.9 nM.
Turning to `Cc1cc(-c2cc(Cl)ccc2OCCn2c(C)nc3cc(C)c(CN(C)C)c(C#N)c3c2=O)c2scc(C(=O)O)c2n1` [compound 1379], under setting [3], the IC50 was 18 nM.
With `Cc1cc(-c2cc(Cl)ccc2OCCn2c(C)nc3cc(CCCN(C)C)c(Cl)c(C#N)c3c2=O)c2scc(C(=O)O)c2n1` [compound 606], the IC50 was less than 50 nM under setting [1] and 4.12 nM under setting [2].
On the same counts, the results for `Cc1cc(-c2cc(Cl)ccc2OCCn2c(C)nc3cnc(-c4cccc(C(F)(F)F)c4)c(C#N)c3c2=O)c2scc(C(=O)O)c2n1` [compound 951] are less than 50 nM and 43.6 nM.
As for `Cc1nc2cc(C(F)(F)F)cc(C#N)c2c(=O)n1CCOc1ccc(Cl)cc1-c1ccnc(C(=O)NS(C)(=O)=O)c1` [compound 1372], the IC50 under setting [3] was 80.7 nM.
Turning to `Cc1nc2cnc(C3CC3)c(C#N)c2c(=O)n1CCOc1ccc(Cl)cc1Sc1nc(C(=O)O)cs1` [compound 922], the IC50 under setting [1] was in the range of 50 to 1000 nM and the IC50 under setting [2] is 89.4 nM.
Taken in the same sequence, the figures for `Cc1cc(-c2cc(Cl)ccc2OCCn2c(C)nc3cc(Cl)c(N(C)c4cncc(F)c4)c(C#N)c3c2=O)c2scc(C(=O)O)c2n1` [compound 961] were less than 50 nM and 21.1 nM.
With `Cc1cc(-c2cc(Cl)ccc2OCCn2c(C)nc3c(C)nc(-c4c(F)cccc4F)c(C#N)c3c2=O)c2scc(C(=O)O)c2n1` [compound 1622], the IC50 under setting [3] was 17.3 nM.
Same read-out and setting: the result for `Cc1nc2cnc(N(C)C3CCN(CC(C)(F)F)CC3)c(C#N)c2c(=O)n1CC#Cc1ccc(Cl)cc1-c1ccnc2c(C(=O)NS(=O)(=O)c3ccc(C(F)(F)F)nc3)csc12` [compound 1674] reads 6.5 nM; that for `Cc1nc2cnc(C3CCC(F)(F)CC3)c(C#N)c2c(=O)n1CC#Cc1ccc(Cl)cc1-c1ccnc2c(C(=O)O)csc12` [compound 1481], 20.8 nM.

These data come from US11286268B1, “EIF4E-inhibiting compounds and methods” (EFFECTOR THERAPEUTICS, INC., priority 2019, dated 2022).
